What was measured:
[1] = target: T1, folate receptor (Homo sapiens, UniProt P15328); assay: ex vivo biodistribution studies in nude mice bearing KB xenografts tumors; settings: nude mice, KB xenograft tumors; ~2 MBq radiotracer; blockade group 200 μg natural folic acid 10 min prior; 90 min post injection
T1 construct: endogenous in cells; host or cells: KB tumour xenografts in nude mice
Description: (§1) 2′-[^18F]fluoro-folic acid was applied in ex vivo biodistribution studies using eight nude mice bearing KB xenografts tumors. ˜2 MBq of the radiotracer were injected into each animal. In a blockade group 200 μg natural folic acid was injected 10 min prior to the radiotracer. The animals were scarified 90 min post injection.

[2] = tested on: folate receptor; assay: as above
Description: as §1

[3] = tested on: folate receptor; assay: in vivo PET imaging in nude mice bearing KB xenografts tumors
Description: In vivo PET imaging using the 2′-[^18F]fluoro-folic acid was performed in nude mice bearing KB xenografts tumors. Ca. 10 MBq of the radiotracer were injected into each animal. In the blockade group 200 μg natural folic acid was injected 10 min prior to the radiotracer. The PET scans were acquired from 30 min to 90 min post injection.

T1 sequence (P15328 25-234 limits assumed): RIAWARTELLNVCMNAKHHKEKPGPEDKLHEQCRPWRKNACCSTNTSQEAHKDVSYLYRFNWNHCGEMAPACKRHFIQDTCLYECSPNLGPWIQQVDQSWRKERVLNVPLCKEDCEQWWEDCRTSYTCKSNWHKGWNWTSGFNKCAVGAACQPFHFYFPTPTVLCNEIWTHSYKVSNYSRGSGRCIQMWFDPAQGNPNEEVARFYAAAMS

specific uptake of the radiotracer in folate receptor-positive KB tumors, ratio of specific blockade [1]: 86.6%
uptake in folate receptor-positive tissues (FIG. 1) ([2]; ex vivo biodistribution, nude mice bearing KB xenografts): high specific uptake
uptake of the radiotracer in the kidney cortex ([3]; PET, kidney cortex, 30-90 min post injection): high specific uptake
uptake of the radiotracer in the kidney medulla ([3]; PET, kidney medulla, 30-90 min post injection): no uptake
Compound: Nc1nc2ncc(CNc3ccc(C(=O)N[C@@H](CCC(=O)O)C(=O)O)c([18F])c3)nc2c(=O)[nH]1 [2′-[^18F]fluoro-folic acid]
specific uptake in the kidneys, specific blockade ([2]; nude mice, kidneys, ~2 MBq radiotracer, blockade group 200 μg natural folic acid 10 min prior, 90 min post injection): 95.5%
specificity of uptake (blockade by natural folic acid) ([3]; ca. 10 MBq, blockade group 200 μg natural folic acid 10 min prior, PET 30-90 min post injection): highly specific and blocked by natural folic acid

Reference: patent US9771368B2, “18F-labelled folates” (priority 2007, dated 2017)
